Here are results for two molecules from patent EP0859230A1, “Detection of analytes using electrochemistry” (priority 1997, dated 1998).

For assay [1], the system named is PBP (penicillin binding protein). Nature of the assay: Competitive inhibition assay: penicillin vs 7-ACA-GOD on PBP-coated nitrocellulose strips, amperometric detection in flow cell. Particulars: CV in percent in brackets; for Velocity (nA sec^1) Mean: over 200 sec; for Absolute response (µA) Mean (CV): over 500 sec. As to the method: Strips of nitrocellulose membrane were cut to the exact size of 0.4 x 0.9 cm. Strips were soaked in a solution of 5 mg/ml PBP (penicillin binding protein) in buffer (0.1M phosphate buffered saline (PBS), pH 7.4). The strips were left to soak for 1 hour at ambient temperature.
After incubation, strips were blocked in a 2% w/v bovine serum albumin (BSA) solution in PBS buffer (pH 7.4) for 1 hour at ambient temperature.
Individual strips were removed from the blocking solution and incubated for 5 minutes at 64°C in a 1:2000 dilution of 7-ACA-GOD stock solution in whole milk with or without free analyte (penicillin G) present.
Strips were washed for 20 seconds in PBS and placed onto the working electrode of the screen-printed sensor card.
The card was mounted into the flow cell or flowing liquid system and a 0.1M PBS solution was introduced, pumped at a constant rate through the flow cell. The working electrode was poised at a potential of +350 mV and the system allowed to achieve electrochemical equilibrium. A 0.1M glucose solution in 0.1M PBS/0.1M KCl was then pumped into the system. The flow was halted after 60 seconds. The electrochemical response of the system was monitored throughout this period.
Results can be expressed as total current increase in µA over a given time interval or can be interpreted as current increase per unit time (µA/sec).
Nitro-cellulose strips were prepared in two separate batches. […] Responses are also recorded as 'velocities' whereby the maximum current versus time slope is measured during the period of glucose flow across the working electrode surface (expressed as nA/sec). Results are also expressed as a percentage of the signal of the zero ppb penicillin positive control, that is, the zero inhibited response that therefore yields a 100% response value.

The subject of assay [2] is monoclonal anti-gentamycin antibody. Nature of the assay: Competitive flow-cell electrochemical immunoassay: free gentamycin vs gentamycin-GOD conjugate in milk. In kind it is binding. The method, then: Strips of nitrocellulose were cut to the exact size of 0.4 x 0.9 cm. Strips were soaked in a solution of 5 µg/ml of monoclonal anti-gentamycin antibody in PBS buffer pH 7.4, for 1 hour at ambient temperature.
After incubation, strips were blocked in a 2% w/v BSA solution in PBS(pH 7.4) for 1 hour at ambient temperature.
Individual strips were removed from the blocking solution and mounted onto the working electrode surface, thus creating a complete sensor card.
Sensor cards were mounted into the flow cell, the strip of nitrocellulose being held in place by a rubber seal, used to prevent leakage during operation of the flow cell device.
One ml samples of milk were aliquoted, to which were added 25 µl of a: 1:1000 (A), 1:2000 (B) or 1:2500 (C) dilution of gentamycin-GOD conjugate (prepared with state of the art procedures).
Free gentamycin was then added to each milk sample, yielding solutions having gentamycin concentrations varying between 0 and 1000 ppb.
A pumping device was connected to the flow cell and the prepared milk samples were each tested with a new sensor card mounted in place.
The flow rate through the system was adjusted so that the complete milk sample passed through the system over a 3 minute time period. A 1 minute wash step was then performed with 0.1 % w/v Tween in 0.1M PBS (pH 7.4). Immediately after each wash step, 0.5M glucose in 0.1M PBS/ 0.1M KCl was passed through the flow cell and the electrochemical responses generated were recorded both as absolute values and as initial response-time velocities in nA/sec.
A 1:10 dilution of the MoAb stock solution was used to coat the nitro-cellulose strips. Gentamycin-glucose oxidase conjugate concentrations were varied from 1:4000 (exp.A) to 1:8000 (exp.B) to 1:10 000 (exp. C).

Another assay relates to Antigentamycin. Nature of the assay: End-point competitive microtiter plate assay with gentamycin-GOD, hydrogen peroxide peak measured in flow cell. Particulars: gentamycin concentrations as low as 5 ppb; 1:10 000 dilution of gentamycin-GOD conjugate. In kind it is binding. As to the method:
The immunological reaction step is performed in a microtiter plate. Using GOD as the enzyme label, the final microtiter well solution will contain hydrogen peroxide, the amount of which is inversely proportional to the amount of free gentamycin present in the sample under uniform conditions (competitive assay approach). This solution is pumped through the flow cell yielding a current peak, the magnitude of which is directly proportional to the amount of hydrogen peroxide present. Since no enzyme label is present in the final solution, no further hydrogen peroxide generation occurs after removal of solution from the microtiter well, thus current peaks, as opposed to current steps are observed on liquid passage through the flow cell.
Microtiter plates were coated in carbonate/bicarbonate buffer pH 9.6 for 1 hour at 37°C, then washed and blocked with 0.5% w/v gelatin in PBS buffer pH 7.4. Plates were either used directly or stored at 4°C until required.
Primary incubations with gentamycin-GOD, with or without free gentamycin, and in milk or buffer (PBS pH 7.4) were performed for 1 hour at 37°C. Gentamycin-GOD concentrations were varied between 1:1000 and 1:20 000. […]
After a given time period for substrate conversion, 150 µl of solution was pumped through the flow cell using a peristaltic pump set at a constant flow rate of 300 µl/min. Responses were measured as peak heights in nA or mA. […]

Where [3] appears, read: Batch 1, penicillin 100 ppb in whole milk, n=2.
The mark [4] stands for this setting: Batch 2, penicillin 10 ppb in whole milk, n=3.
[5] abbreviates: Batch 2, penicillin 100 ppb in whole milk, n=2.
Where [6] appears, read: Overall, penicillin 100 ppb in whole milk, n=4.
[7] abbreviates: Exp. A (conjugate 1:4000), gentamycin 10 ppb in milk, duplicate.
The mark [8] stands for this setting: Exp. A (conjugate 1:4000), gentamycin 100 ppb in milk, duplicate.
Setting [9] is: Exp. A (conjugate 1:4000), gentamycin 1000 ppb in milk, duplicate.
Where [10] appears, read: Exp. B (conjugate 1:8000), gentamycin 10 ppb in milk, duplicate.
[11] abbreviates: Exp. B (conjugate 1:8000), gentamycin 100 ppb in milk, duplicate.
Setting [12] is: Exp. C (conjugate 1:10 000), gentamycin 10 ppb in milk, triplicate.
[13] abbreviates: Exp. C (conjugate 1:10 000), gentamycin 100 ppb in milk, triplicate.

Take `CC1(C)S[C@@H]2[C@H](NC(=O)Cc3ccccc3)C(=O)N2[C@H]1C(=O)O` [Penicillin, penicillin G]: the “Velocity (nA sec^1) Mean” value in assay [1] (setting [3]) was 0.209 (12.6) nA sec^1; in assay [1] (setting [4]), 0.151 (32.0) nA sec^1; in assay [1] (setting [5]) it was 0.062 (5.7) nA sec^1; in assay [1] (Overall, penicillin 10 ppb in whole milk, n=3), 0.151 (32.0) nA sec^1; in assay [1] (setting [6]), 0.135 (64.9) nA sec^1. Further, the “Absolute response (µA) Mean (CV)” value is reported as 0.087 (35.8) µA in assay [1] (setting [3]); 0.064 (17.7) µA in assay [1] (setting [4]); 0.026 (21.8) µA in assay [1] (setting [5]); 0.064 (17.7) µA in assay [1] (Overall (batch 1 + batch 2), penicillin 10 ppb in whole milk, n=3); 0.057 (70.2) µA in assay [1] (setting [6]).
On to gentamycin, for which the “Absolute response (µA) Mean value” in assay [2] (setting [7]) turned out to be 3217 µA; in assay [2] (setting [8]), 3050 µA; in assay [2] (setting [9]) it was 1350 µA; in assay [2] (setting [10]) it was 2438 µA; in assay [2] (setting [11]) it was 2025 µA; in assay [2] (setting [12]), 1868 µA. For the same molecule, in assay [2] (setting [13]), the “Absolute response (µA) Mean value” is reported as 1333 µA. For the same molecule, the “Velocity (nA sec^1) Mean value” in assay [2] (setting [7]) stood at 36.0 nA sec^1; in assay [2] (setting [8]), 22.7 nA sec^1; in assay [2] (setting [9]) it was 8.7 nA sec^1; in assay [2] (setting [10]), 18.0 nA sec^1; in assay [2] (setting [11]), 14.3 nA sec^1; in assay [2] (setting [12]) it was 10.8 nA sec^1. Moreover, the “Velocity (nA sec^1) Mean value” in assay [2] (setting [13]) is reported as 6.0 nA sec^1. Besides, the “inhibition of the positive signal” value in the assay on Antigentamycin is recorded as “Considerable inhibition”.
